Measurements reported in patent US7981867B2, “Use of des-aspartate-angiotensin I” (priority 2005, dated 2011).

Assays:
diabetic GK rats = test: Oral glucose tolerance test in diabetic GK rats, oral treatment; type: in vivo; conditions: 400 or 600 nmole/kg oral daily; for hypoglycaemic action (30 min oral glucose tolerance test): 6 weeks of treatment
Procedure: The experiment was similarly carried as for KKAy mice. Control animals were administered (by gavage) 0.2 mL of water and groups 1 and 2 animals were similarly administered 400 and 600 nmole/kg des-aspartate-angiotensin I in 0.2 mL water, respectively, for a period 8 weeks. Oral glucose tolerance test (determined at 30 min) was carried out after 4 and 6 weeks of treatment. […] Data obtained after 8 week of treatment are given in another figure, FIG. 4.
Diabetic GK rats were divided into three groups, consisting of six animals in each group. Animals in groups 1 and 2 were administered, by gavage, one of the following: 400 or 600 nmole/kg of des-aspartate-angiotensin I in a volume of 0.2 mL water daily for up to 8 weeks. Control animals in group 3 were similarly administered 0.2 mL water. […] Animals were treated for a further 2 weeks and a full oral glucose tolerance test was performed thereafter.

diabetic KKAy mice = test: Oral glucose tolerance test in diabetic KKAy mice, intraperitoneal treatment; type: in vivo; set-up: Serum glucose level: unit not given here; conditions: for Serum glucose level: oral glucose tolerance test
Procedure: (§1) The diabteic KKAy mice were divided into four groups consisting of 6 animals per group. Animals in the control group were intraperitoneally administered 0.1 mL saline. Animals in the second, third, and fourth groups were similarly administered with 100, 200, 400 nmole/kg des-aspartate-angiotensin I, respectively. Treatment with saline and des-aspartate-angiotensin I was carried out daily for 4 weeks. Following this, animals were fasted overnight for 16 hours and oral glucose tolerance test was performed as follows: blood was withdrawn from the orbital sinus for blood glucose determination (time of withdrawal was designated as 0 time), animals were then orally administered glucose (2 g/kg), and blood was withdrawn at 30, 60 and 120 min for blood glucose determination.
as §1, with “diabetic” for “diabteic”, “respectively in 0.1 ml of PBS.” for “respectively.”, “determination. The blood was allowed to clot and blood glucose was measured as serum glucose using a commercial glucose kit from Thermo Electron Corporation, Australia.” for “determination.”

Substance: des-aspartate-angiotensin I (RVYIHPFHL; Angiotensin-1; UniProt P01019 26-34, looked up, fragment) [endogenous angiotensin peptide derived from angiotensin I by a specific aminopeptidase; purchased from Bachem]
- hypoglycaemic action (30 min oral glucose tolerance test) (diabetic GK rats): significant hypoglycaemic action was detected
- hypoglycaemic action (30 min oral glucose tolerance test) (diabetic GK rats; listed as DAA-1): exerts hypoglycaemic action
- hypoglycaemic action (full oral glucose tolerance test) (diabetic GK rats; 8 weeks of treatment): significantly expressed
- Serum glucose level (diabetic KKAy mice; 100 nmole/kg i.p. daily for 4 weeks, 0 min): 7.9 ± 0.9
- Serum glucose level (diabetic KKAy mice; 100 nmole/kg i.p. daily for 4 weeks, 30 min): 21.2 ± 1.6
- Serum glucose level (diabetic KKAy mice; 100 nmole/kg i.p. daily for 4 weeks, 60 min): 13.4 ± 1.3
- Serum glucose level (diabetic KKAy mice; 100 nmole/kg i.p. daily for 4 weeks, 120 min): 9.9 ± 0.5
- Serum glucose level (diabetic KKAy mice; 200 nmole/kg i.p. daily for 4 weeks, 0 min): 6.9 ± 0.9
- Serum glucose level (diabetic KKAy mice; 200 nmole/kg i.p. daily for 4 weeks, 30 min): 16.0 ± 1.4
- Serum glucose level (diabetic KKAy mice; 200 nmole/kg i.p. daily for 4 weeks, 60 min): 14.5 ± 0.9
- Serum glucose level (diabetic KKAy mice; 200 nmole/kg i.p. daily for 4 weeks, 120 min): 8.7 ± 1.2
- Serum glucose level (diabetic KKAy mice; 400 nmole/kg i.p. daily for 4 weeks, 0 min): 6.5 ± 0.6
- Serum glucose level (diabetic KKAy mice; 400 nmole/kg i.p. daily for 4 weeks, 30 min): 15.4 ± 1.6
- Serum glucose level (diabetic KKAy mice; 400 nmole/kg i.p. daily for 4 weeks, 60 min): 13.0 ± 1.1
- Serum glucose level (diabetic KKAy mice; 400 nmole/kg i.p. daily for 4 weeks, 120 min): 8.8 ± 0.6
- blood glucose level at 30 and 60 min of the oral glucose tolerance test (diabetic KKAy mice; doses of 200 and 400 nmole/kg/day i.p. for 4 weeks, vs control): significantly lowered
